Biological target: T1, biotinylated HRP (Armoracia rusticana, UniProt P00433)
T1 construct: purchased Roche Diagnostics, Indianapolis, Ind., USA
T1 sequence (P00433 31-338 limits assumed): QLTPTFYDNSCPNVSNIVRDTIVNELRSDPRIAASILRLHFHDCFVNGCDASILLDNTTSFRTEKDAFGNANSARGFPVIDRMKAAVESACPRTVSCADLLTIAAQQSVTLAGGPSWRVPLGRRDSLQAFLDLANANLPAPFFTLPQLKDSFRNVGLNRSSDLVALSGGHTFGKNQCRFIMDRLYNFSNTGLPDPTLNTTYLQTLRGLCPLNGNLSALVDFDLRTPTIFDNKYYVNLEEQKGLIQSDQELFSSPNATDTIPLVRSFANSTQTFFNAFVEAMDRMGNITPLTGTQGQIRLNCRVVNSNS
Test: Model system for selection of SSIA (M280 btn-BSA-AK1-streptavidin particles + Btn-HRP:HRP)
Assay type: biochemical
Settings: for S/S0: Btn-HRP 0 ng/mL vs 0; for S/S0 / S1/S0 / S2/S0 / S3/S0 / S4/S0 / effect in the model system / utility as SSIA: SSIA 100 μM; for B-HRP0 light intensity: Btn-HRP 0 ng/mL; for B-HRP0 light intensity / B-HRP1 light intensity / B-HRP10 light intensity / B-HRP100 light intensity / B-HRP250 light intensity: total HRP 500 ng/mL, SSIA final 100 μM; for S1/S0: Btn-HRP 1 ng/mL vs 0; for B-HRP1 light intensity: Btn-HRP 1 ng/mL; for S2/S0: Btn-HRP 10 ng/mL vs 0; for B-HRP10 light intensity: Btn-HRP 10 ng/mL; for S3/S0: Btn-HRP 100 ng/mL vs 0; for B-HRP100 light intensity: Btn-HRP 100 ng/mL; for S4/S0: Btn-HRP 250 ng/mL vs 0; for B-HRP250 light intensity: Btn-HRP 250 ng/mL; for effect in the model system / utility as SSIA: conclusion in words
Description: The model system uses a microparticle conjugated to BSA (bovine serum albumin) labeled with a […] and acridan ketenedithioacetal chemiluminescent label (AK1) as the chemiluminescent-labeled sbp, and biotinylated HRP as the activator-labeled specific binding pair. In the model system, varying amounts of Btn-HRP is added to the chemiluminescent-labeled specific binding pair at 0, 1, 10, 100 and 250 ng/mL. Additional unlabeled HRP is added to reach a total HRP of concentration of 500 ng/mL in each reaction mixture. The unlabeled HRP in combination with the activator-labeled sbp was provided to the chemiluminescent-labeled sbp microparticles to emulate sample. A compound for assessment as an SSIA was also added. This reaction mixture of the model system is then triggered by addition of trigger solution in a manner of assays of the present disclosure.
To prepare the chemiluminescent-labeled sbp on microparticles, Bovine Serum Albumin (BSA) was biotinylated with 4× molar excess of biotin-LC-sulfoNHS (Pierce Biotechnology Inc., Rockford, Ill., USA). Unbound reactants were removed via desalting or dialysis. The biotin-BSA was then reacted with a 5× molar excess of acridan ketenedithioacetal AK1 in 20 mM sodium phosphate pH 7.2: DMSO 75:25, v/v) followed by desalting in the same buffer. The dual labeled (biotin and AK1) BSA was then coupled with tosyl activated M-280 microparticles (Invitrogen Corporation, Carlsbad, Calif., USA) in a 0.1 M borate buffer pH 9.5 at a concentration of ca. 20 μg labeled BSA per mg of microparticles for 16-24 h at 40° C. After coupling the microparticles were stripped for 1 h at 40° C. with 0.2 M TRIS base, 2% SDS, pH ˜11. The stripping process was repeated one additional time. Microparticles were then suspended in a 0.1% BSA/TRIS buffered saline (BSA/TBS) buffer and streptavidin (SA) was added at approximately 15 μg SA per mg microparticles. Streptavidin was mixed with the microparticles for 45-50 min at room temperature. The microparticles were then washed three times and suspended in the same BSA/TBS.
HRP, (Roche Diagnostics, Indianapolis, Ind., USA) was biotinylated with 4× molar excess of biotin-LC-sulfoNHS (Pierce Biotechnology Inc., Rockford, Ill., USA). Unbound reactants were removed via desalting or dialysis.
Each SSIA compound for assessment was dissolved in Buffer II at a concentration at least 10× of final concentration of the reaction mixture (after the addition of the trigger solution)
Paramagnetic particles (PMP): (M280)-(btn-BSA-AK)-(Streptavidin);
Sample Emulator: B-HRP:HRP; 500 ng/mL total with titration of B-HRP:HRP at Total HRP concentration of 500 ng/mL, with Btn-HRP variations: 0, 1, 10, 100 and 250 ng/mL.
SSIA: According to tables below in BUFFER II targeted to give a final concentration of 100 μM.
Trigger solution A is defined above.
5 μl of 1 mg/ml of dual-labeled (biotin and AK1) BSA M280 particles were mixed with 45 μl of working concentration SSIA in Buffer II. The assay volume brought to […] by adding 15 μl of Buffer II. 15 μl of sample containing Btn-HRP:HRP at different ratios (The amount of biotinylated-HRP varied from 0, 1, 10, 100 and 250 ng/mL) was added. The reaction mixture was incubated for 30 min at 37° C., then 100 μL of trigger solution was added and the light intensity recorded. Total volume of reaction mixture, including trigger solution was […] with a final concentration of 100 μM of SSIA.

Structure (SMILES)	S/S0	B-HRP0 light intensity	S1/S0	B-HRP1 light intensity	S2/S0	B-HRP10 light intensity	S3/S0	B-HRP100 light intensity	S4/S0	B-HRP250 light intensity	effect in the model system / utility as SSIA
Cc1c(C)c2c(c(C)c1O)CC[C@@](C)(CCC[C@H](C)CCC[C@H](C)CCCC(C)C)O2 (racemic) [(+/−)-alpha-Tocopherol, (±)-a-Tocopherol]	1	2,772	2.3	6,468	452.1	1,253,187	3088.2	8,560,469	3473.4	9,628,184	–
O=C(O)CCCC[C@@H]1CCSS1 (racemic) [Lipoic Acid]	1	35,016	2	71,751	70	2,450,949	246.9	8,647,037	252.7	8,847,921	no effect
Oc1ccc(O)c(Cl)c1 [2-chloro-1,4-dihydroxybenzene]	1	3,571	1.1	4,007	52.9	188,920	170.8	610,053	245.3	875,831	demonstrating utility as SSIA
Oc1ccc(Cl)cc1O [4-chlorocatechol]	1	93	2.2	205	14.8	1,373	4910.8	456,707	13558.5	1,260,937	demonstrating utility as SSIA
N[C@@H](CS)C(=O)O [Cysteine]	1	35,695	1.6	58,203	69.6	2,483,411	256.3	9,147,371	285.5	10,190,505	no effect
COc1cc(/C=C/C(=O)O)ccc1O [Ferulic acid]	1	5,252	2.3	12,079	136.2	715,313	1672.9	8,785,865	1950.5	10,244,269	–
NNC(=O)c1cccnc1 [Nicotinic Hydrazide]	1	42,260	1.4	58,356	49.8	2,106,471	194.2	8,205,320	187.5	7,923,092	no effect

More lines, now with the values ahead:

S/S0	B-HRP0 light intensity	S1/S0	B-HRP1 light intensity	S2/S0	B-HRP10 light intensity	S3/S0	B-HRP100 light intensity	S4/S0	B-HRP250 light intensity	effect in the model system / utility as SSIA	Structure (SMILES)
1	972	2.9	2,808	454.2	441,455	6076.7	5,906,521	6587.9	6,403,425	demonstrating utility as SSIA	Nc1ccc(C(=O)O)cc1O [4-Amino-3-hydroxybenzoic acid, 4-amino-3-hydroxybenzoic acid]
1	675	1.7	1,163	110.8	74,764	489	330,056	384.5	259,541	demonstrating utility as SSIA	Cl.Nc1ccc(O)cc1O [4-aminoresorcinol HCl, 4-aminoresorcinol hydrochloride]
1	264	3.6	961	112.3	29,645	18626.9	4,917,499	33275	8,784,595	demonstrating utility as SSIA	CC1(C)OC[C@@H]([C@H]2OC(=O)C(O)=C2O)O1 [5,6iso-propyliene ascorbic acid, 5,6-Isopropylidene-L-Ascorbic acid]
1	6,051	1.8	10,924	278.7	1,686,079	1437.5	8,698,069	1699.4	10,282,504	–	Cc1c(O)cc2c(c1C)O[C@](C)(CCC[C@H](C)CCC[C@H](C)CCCC(C)C)CC2 [(+)-gamma-Tocopherol, (+)-y-Tocopherol]
1	81	4	327	502.4	40,863	100662.3	8,187,204	125193.6	10,182,411	demonstrating utility as SSIA	CCCCCCCCCCCCCCCC(=O)OC[C@H](O)[C@H]1OC(=O)C(O)=C1O [Ascorbic Acid 6-palmitate, L-Ascorbic acid 6-Palmitate]
1	54,528	1.3	70,741	43.7	2,381,361	173.7	9,471,431	190.2	10,370,061	no effect	COc1ccc2[nH]cc(CCNC(C)=O)c2c1 [Melatonin]
1	43,647	1.1	47,636	40.3	1,757,607	199	8,685,795	234.2	10,219,869	no effect	CC(=O)N[C@@H](CS)C(=O)O [N-Ac-Cysteine, N-acetyl cysteine]
